{"source": "patent US11827611B2", "about": "“Ubiquitin-specific peptidase 24 inhibitor, medicinal composition including the same and method of delaying or reversing multidrug resistance in cancers using the same” (NATIONAL CHENG KUNG UNIVERSITY, priority 2020, dated 2023)", "key": {"USP24": {"target": "USP24 (Homo sapiens, UniProt Q9UPU5)", "sequence (Q9UPU5 whole entry)": "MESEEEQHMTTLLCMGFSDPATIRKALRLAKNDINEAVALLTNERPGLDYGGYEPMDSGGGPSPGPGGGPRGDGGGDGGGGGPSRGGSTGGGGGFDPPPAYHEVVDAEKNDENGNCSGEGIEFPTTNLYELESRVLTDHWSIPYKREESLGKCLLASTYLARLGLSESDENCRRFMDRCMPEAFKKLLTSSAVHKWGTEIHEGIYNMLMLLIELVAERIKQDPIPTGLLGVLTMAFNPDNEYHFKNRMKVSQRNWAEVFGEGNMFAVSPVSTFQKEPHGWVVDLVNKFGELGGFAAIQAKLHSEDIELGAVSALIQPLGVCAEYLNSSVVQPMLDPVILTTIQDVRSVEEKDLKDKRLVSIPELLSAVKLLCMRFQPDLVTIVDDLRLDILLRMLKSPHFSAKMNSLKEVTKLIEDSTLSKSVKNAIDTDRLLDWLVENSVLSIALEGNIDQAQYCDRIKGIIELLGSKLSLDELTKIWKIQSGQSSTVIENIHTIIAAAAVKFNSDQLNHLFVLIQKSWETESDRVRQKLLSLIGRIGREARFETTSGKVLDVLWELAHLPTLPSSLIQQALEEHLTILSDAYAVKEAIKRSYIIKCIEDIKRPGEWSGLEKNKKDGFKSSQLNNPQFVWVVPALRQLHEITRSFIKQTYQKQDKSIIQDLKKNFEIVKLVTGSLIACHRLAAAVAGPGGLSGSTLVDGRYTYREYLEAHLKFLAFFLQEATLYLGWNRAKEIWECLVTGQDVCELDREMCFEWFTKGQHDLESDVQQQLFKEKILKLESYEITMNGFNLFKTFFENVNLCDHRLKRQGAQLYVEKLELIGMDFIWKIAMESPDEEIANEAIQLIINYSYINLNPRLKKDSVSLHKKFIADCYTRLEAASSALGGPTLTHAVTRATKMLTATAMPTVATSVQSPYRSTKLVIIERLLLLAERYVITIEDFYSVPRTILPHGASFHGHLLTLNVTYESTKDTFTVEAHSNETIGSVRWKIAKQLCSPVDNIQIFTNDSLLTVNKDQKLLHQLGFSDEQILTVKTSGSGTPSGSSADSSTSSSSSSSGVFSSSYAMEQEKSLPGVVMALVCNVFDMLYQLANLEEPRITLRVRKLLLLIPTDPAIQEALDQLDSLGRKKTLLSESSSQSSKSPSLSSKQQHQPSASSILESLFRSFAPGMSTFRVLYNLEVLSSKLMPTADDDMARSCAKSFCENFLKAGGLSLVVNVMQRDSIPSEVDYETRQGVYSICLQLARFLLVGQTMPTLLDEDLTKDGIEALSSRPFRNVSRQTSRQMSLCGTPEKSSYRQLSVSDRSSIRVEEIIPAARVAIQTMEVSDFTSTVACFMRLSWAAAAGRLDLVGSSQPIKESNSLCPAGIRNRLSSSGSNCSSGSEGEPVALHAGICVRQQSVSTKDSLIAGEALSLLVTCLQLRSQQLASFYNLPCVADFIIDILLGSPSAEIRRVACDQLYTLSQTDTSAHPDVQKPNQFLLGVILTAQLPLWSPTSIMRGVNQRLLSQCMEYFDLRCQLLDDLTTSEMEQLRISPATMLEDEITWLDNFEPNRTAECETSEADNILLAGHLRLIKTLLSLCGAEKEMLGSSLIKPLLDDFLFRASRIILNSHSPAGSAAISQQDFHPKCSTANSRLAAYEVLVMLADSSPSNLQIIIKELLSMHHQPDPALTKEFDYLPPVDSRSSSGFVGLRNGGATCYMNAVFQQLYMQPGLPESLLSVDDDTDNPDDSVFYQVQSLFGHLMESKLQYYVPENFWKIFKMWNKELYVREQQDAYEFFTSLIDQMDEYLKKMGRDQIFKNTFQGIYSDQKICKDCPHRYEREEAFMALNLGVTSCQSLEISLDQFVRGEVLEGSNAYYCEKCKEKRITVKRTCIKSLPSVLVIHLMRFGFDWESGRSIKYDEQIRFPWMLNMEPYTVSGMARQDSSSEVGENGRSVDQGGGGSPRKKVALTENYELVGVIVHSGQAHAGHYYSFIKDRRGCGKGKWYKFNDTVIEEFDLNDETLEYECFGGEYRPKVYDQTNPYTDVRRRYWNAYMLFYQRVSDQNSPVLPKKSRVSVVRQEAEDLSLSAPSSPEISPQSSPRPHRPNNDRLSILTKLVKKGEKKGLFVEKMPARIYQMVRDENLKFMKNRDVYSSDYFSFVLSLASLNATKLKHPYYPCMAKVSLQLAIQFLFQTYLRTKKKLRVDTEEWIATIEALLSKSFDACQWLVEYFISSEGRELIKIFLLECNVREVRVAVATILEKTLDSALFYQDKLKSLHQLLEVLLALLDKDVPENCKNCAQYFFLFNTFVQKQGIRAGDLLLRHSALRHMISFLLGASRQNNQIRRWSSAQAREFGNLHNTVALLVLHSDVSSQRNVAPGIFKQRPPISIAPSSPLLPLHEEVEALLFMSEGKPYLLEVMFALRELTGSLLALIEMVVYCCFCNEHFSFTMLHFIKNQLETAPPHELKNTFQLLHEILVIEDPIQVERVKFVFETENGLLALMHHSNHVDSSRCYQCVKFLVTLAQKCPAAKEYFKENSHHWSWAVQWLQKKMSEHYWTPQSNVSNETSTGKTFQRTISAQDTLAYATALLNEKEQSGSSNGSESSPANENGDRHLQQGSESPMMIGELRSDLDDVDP", "assay": "in vitro enzyme assay of pure recombinant USP24 protein with biotin-tetra-ub as the substrate", "assay_type": "biochemical", "conditions": "for catalytic activity of recombinant purified USP24 proteins: biotin-tetra-ub substrate, FIG. 4C / 6C", "description": "FIG. 4C illustrates the result of in vitro enzyme assay of the enzyme activity of USP24 pure recombinant USP24 protein with biotin-tetra-ub as the substrate in the absence or presence of USP24 inhibitor according to several embodiments of the present invention.\nFIG. 6C illustrates the result of in vitro enzyme assay of the enzyme activity of USP24 pure recombinant USP24 protein with biotin-tetra-ub as the substrate in the absence or presence of USP24 inhibitor according to several embodiments of the present invention."}, "USP10": {"target": "USP10 (Homo sapiens, UniProt Q14694)", "sequence (Q14694 whole entry)": "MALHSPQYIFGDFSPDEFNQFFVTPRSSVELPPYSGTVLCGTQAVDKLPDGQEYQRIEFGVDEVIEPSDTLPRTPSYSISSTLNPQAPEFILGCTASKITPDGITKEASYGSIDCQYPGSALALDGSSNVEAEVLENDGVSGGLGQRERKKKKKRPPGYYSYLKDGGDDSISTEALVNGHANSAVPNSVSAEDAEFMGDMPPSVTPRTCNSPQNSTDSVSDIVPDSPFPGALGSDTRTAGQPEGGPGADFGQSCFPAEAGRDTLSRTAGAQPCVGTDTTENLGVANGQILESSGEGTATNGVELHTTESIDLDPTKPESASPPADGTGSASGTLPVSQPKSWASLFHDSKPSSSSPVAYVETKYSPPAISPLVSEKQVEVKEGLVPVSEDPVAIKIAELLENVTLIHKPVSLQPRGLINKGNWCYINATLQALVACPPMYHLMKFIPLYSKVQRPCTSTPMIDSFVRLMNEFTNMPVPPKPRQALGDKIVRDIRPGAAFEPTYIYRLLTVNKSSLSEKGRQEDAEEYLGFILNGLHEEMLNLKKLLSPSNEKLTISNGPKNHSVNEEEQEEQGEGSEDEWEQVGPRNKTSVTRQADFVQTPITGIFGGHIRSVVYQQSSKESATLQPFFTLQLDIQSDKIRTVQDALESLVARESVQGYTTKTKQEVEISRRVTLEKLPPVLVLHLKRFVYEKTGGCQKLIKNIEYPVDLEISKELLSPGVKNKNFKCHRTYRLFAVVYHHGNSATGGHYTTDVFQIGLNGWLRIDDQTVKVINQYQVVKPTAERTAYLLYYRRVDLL", "assay": "catalytic activity of USP10", "assay_type": "biochemical", "conditions": "data not shown"}, "[1]": {"system": "USP24 substrates, Bax and BRD7, in A549 cells", "assay": "protein levels of USP24 substrates in A549 cells treated with USP24 inhibitor candidates (Western blotting)", "assay_type": "cell-based, human", "conditions": "for levels of Bax, BRD7 / level of p300: A549 cells; for levels of Bax, BRD7: FIG. 4B; for level of p300: FIG. 4D", "description": "FIG. 4B illustrates a bar diagram showing the relative protein levels of USP24 substrates, Bax and BRD7, in A549 cells treated with various USP24 inhibitor candidates according to several embodiments of the present invention.\nFIG. 4D illustrates the result of Western blotting assay with anti-Ubiquitin antibodies for evaluating the ubiquitination of p300 in A549 cells with or without USP24 overexpression or USP24 inhibitor according to an embodiment of the present invention.\nHuman lung adenocarcinoma epithelial cell line A549 and other lung cancer cell lines were cultured with RPMI 1640 medium (Invitrogen) containing 10% fetal bovine serum (FBS), 100 μg/ml streptomycin and 100 U/ml penicillin G sodium. All cells were incubated at 37° C. with 5% CO2. For transfecting plasmid, Polyjet (SignaGen) was used according to manufacturer's instructions."}, "lung cancer": {"system": "lung cancer", "assay": "lung cancer migratory ability", "assay_type": "cell-based", "conditions": "data not shown"}, "USP7": {"target": "USP7 (Homo sapiens, UniProt Q93009)", "sequence (Q93009 whole entry, species assumed)": "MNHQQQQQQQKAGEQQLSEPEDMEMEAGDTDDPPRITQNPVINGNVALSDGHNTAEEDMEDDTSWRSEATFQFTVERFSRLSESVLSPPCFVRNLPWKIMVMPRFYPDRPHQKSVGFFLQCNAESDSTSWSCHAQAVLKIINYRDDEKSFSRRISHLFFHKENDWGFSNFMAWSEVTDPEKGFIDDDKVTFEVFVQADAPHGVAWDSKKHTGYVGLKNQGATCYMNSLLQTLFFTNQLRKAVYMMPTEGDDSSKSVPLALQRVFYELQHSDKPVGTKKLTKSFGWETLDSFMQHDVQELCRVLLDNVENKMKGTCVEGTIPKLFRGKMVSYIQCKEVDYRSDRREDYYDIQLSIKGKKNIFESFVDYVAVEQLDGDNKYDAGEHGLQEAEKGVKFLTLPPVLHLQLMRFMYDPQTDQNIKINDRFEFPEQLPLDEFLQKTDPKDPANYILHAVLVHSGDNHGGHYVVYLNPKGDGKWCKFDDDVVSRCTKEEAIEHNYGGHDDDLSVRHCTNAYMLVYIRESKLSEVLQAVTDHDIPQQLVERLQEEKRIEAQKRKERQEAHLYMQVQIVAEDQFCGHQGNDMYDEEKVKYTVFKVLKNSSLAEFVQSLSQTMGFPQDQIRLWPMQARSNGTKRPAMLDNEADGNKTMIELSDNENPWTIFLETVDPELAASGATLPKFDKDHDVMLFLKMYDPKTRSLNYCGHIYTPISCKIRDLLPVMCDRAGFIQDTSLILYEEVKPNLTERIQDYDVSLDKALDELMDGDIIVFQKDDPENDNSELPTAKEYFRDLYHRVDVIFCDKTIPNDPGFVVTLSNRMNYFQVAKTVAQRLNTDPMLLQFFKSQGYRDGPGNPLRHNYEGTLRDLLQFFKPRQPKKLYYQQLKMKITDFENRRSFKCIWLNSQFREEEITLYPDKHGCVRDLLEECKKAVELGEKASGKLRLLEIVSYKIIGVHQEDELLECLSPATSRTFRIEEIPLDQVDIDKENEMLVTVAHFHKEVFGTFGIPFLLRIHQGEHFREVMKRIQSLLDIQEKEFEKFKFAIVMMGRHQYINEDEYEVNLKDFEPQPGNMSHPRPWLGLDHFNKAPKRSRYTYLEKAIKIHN", "assay": "catalytic activity of USP7", "assay_type": "biochemical", "conditions": "data not shown"}, "USP9x": {"target": "USP9x (Homo sapiens, UniProt Q93008)", "assay": "catalytic activity of USP9x", "assay_type": "biochemical", "conditions": "data not shown"}, "[2]": {"assay": "body weight of SCID mice treated with taxol and USP24 inhibitor", "assay_type": "in vivo", "conditions": "data not shown", "description": "(§1) FIGS. 4K(a) and 4K(b) illustrate the results of the tumor size of T24 injected into SCID mice treated with taxol and USP24 inhibitor in the indicated time according to an embodiment of the present invention."}, "HCT116OX5": {"system": "HCT116OX5", "assay": "cytotoxicity of HCT116OX5 cells treated with or without USP24 inhibitor", "assay_type": "cell-based", "conditions": "HCT116OX5, FIG. 4F(c)", "description": "(§2) FIG. 4E(a) to 4F(c) illustrate the results of the cytotoxicity of T24 cells [FIGS. 4E(a) and 4E(b)], TMZR [FIG. 4F(a)], Hone-1 CPT-R [FIG. 4F(b)] and HCT116OX5 [FIG. 4F(c)] treated with or without USP24 inhibitor according to several embodiments of the present invention."}, "T24 cells [3]": {"system": "T24 cells", "assay": "taxol concentration inside cells evaluated by LC/MS/MS", "assay_type": "cell-based, human", "description": "FIG. 2H illustrates the images of the taxol concentration inside cells evaluated by LC/MS/MS with or without USP24 knockdown according to an embodiment of the present invention.\nFIG. 4J illustrates the concentration of taxol inside cells treated with USP24 inhibitor evaluated by LC/MS/MS according to an embodiment of the present invention.\nFIG. 6B illustrates the profiles of the taxol concentration in the taxol-resistant T24 cells treated with USP24-i101 (the upper panel) or DMSO (lower panel) detected by LC/MS/MS analysis according to an embodiment of the present invention."}, "EMT markers": {"system": "EMT markers", "assay": "EMT markers", "assay_type": "cell-based"}, "T24 cells [4]": {"system": "T24 cells", "assay": "sphere formation of T24 cells with or without USP24 inhibitor", "assay_type": "cell-based, human", "description": "FIGS. 41(a) and 41(b) illustrate the results of the sphere formation of T24 cells with or without USP24 inhibitor treatment according to an embodiment of the present invention."}, "T24": {"system": "T24", "assay": "tumor size of T24 injected into SCID mice treated with taxol and USP24 inhibitor", "assay_type": "in vivo", "conditions": "combined with taxol", "description": "as §1\nThe experiments related with animals were approved by the Institutional Animal Care and Use Committee (IACUC) at National Cheng Kung University (NCKU). These transgenic mice were generated in National Laboratory Animal Center (NLAC, Taiwan, Tainan). After breeding, two-month-old transgenic mice were used to study lung cancer development. Caging was provided suitable space and accommodates appropriate population densities that allow animals' sufficient freedom of movement. To provide amounts of food that must be for transgenic mice normal growth, and maintenance of normal body weight. These transgenic mice were accessed to fresh and uncontaminated drinking water. Transgenic mice were also observed and cared at least for two to three times per week. All methods involving animals were performed in accordance with the relevant guidelines and regulations."}, "TMZR": {"system": "TMZR", "assay": "cytotoxicity of TMZR cells treated with or without USP24 inhibitor", "assay_type": "cell-based", "conditions": "FIG. 4F(a)", "description": "as §2"}, "T24 cells [5]": {"system": "T24 cells", "assay": "cytotoxicity of T24 cells in the treatment of taxol with or without USP24 inhibitor", "assay_type": "cell-based, human", "conditions": "FIG. 4E", "description": "as §2\nFIG. 6A(a) to 6A(b) illustrate the results of the cytotoxicity of T24 cells in the treatment of taxol with or without USP24 inhibitor treatment according to an embodiment of the present invention."}, "P-gp": {"system": "P-gp", "assay": "Western blotting of the level and protein stability of P-gp in T24 treated with USP24 inhibitor", "assay_type": "cell-based, human", "conditions": "T24 cells", "description": "FIG. 4G(a) to 4H(b) illustrate the results of Western blotting assay of the level and protein stability of P-gp in T24 treated with USP24 inhibitor according to an embodiment of the present invention."}, "Hone-1 CPT-R": {"system": "Hone-1 CPT-R", "assay": "cytotoxicity of Hone-1 CPT-R cells treated with or without USP24 inhibitor", "assay_type": "cell-based", "conditions": "FIG. 4F(b)", "description": "as §2"}, "[6]": {"assay": "cytotoxicity of HCC827-GR cells treated with or without USP24 inhibitor under various concentrations of Gefitinib", "conditions": "human"}, "HCC827-GR cells": {"system": "HCC827-GR cells", "assay": "cytotoxicity of HCC827-GR cells treated with or without USP24 inhibitor under various concentrations of Gefitinib"}}, "note": "Structures can show the parent of a compound that is named as a salt. Where two headings read alike, the source gives them in different places.", "data": [{"smiles": "CCCCNS(=O)(=O)c1ccc(NC(=O)c2ccc3ccccc3c2O)c([N+](=O)[O-])c1", "note": "[NCI158067]", "values": [{"measurement": "catalytic activity of recombinant purified USP24 proteins", "setting": "USP24", "result": "inhibited the catalytic activity"}, {"measurement": "catalytic activity of USP10", "setting": "USP10", "result": "could inhibit"}, {"measurement": "levels of Bax, BRD7", "setting": "[1]", "result": "could decrease the levels"}, {"measurement": "level of p300", "setting": "[1]", "result": "could decrease the levels"}, {"measurement": "lung cancer migration", "setting": "lung cancer", "result": "could inhibit lung cancer migration"}, {"measurement": "catalytic activity of USP7", "setting": "USP7", "result": "could inhibit"}]}, {"smiles": "CN1CCN(CCCCN2c3ccccc3Sc3ccc(C(=O)c4ccccc4)cc32)CC1", "note": "[NCI677397, (10-(4-(4-Methylpiperazin-1-yl)butyl)-10H-phenothiazin-2-yl)(phenyl)methanone oxalate]", "values": [{"measurement": "catalytic activity of recombinant purified USP24 proteins", "setting": "USP24", "result": "inhibited the catalytic activity"}, {"measurement": "specificity in blocking USP24 enzyme activity", "setting": "USP24; versus USP7, USP9x, USP10", "result": "higher specificity"}, {"measurement": "catalytic activity of USP9x", "setting": "USP9x", "result": "could not block"}, {"measurement": "catalytic activity of USP10", "setting": "USP10", "result": "could not block"}, {"measurement": "body weight", "setting": "[2]", "result": "did not affect the body weight"}, {"measurement": "drug resistance induced by oxaliplatin in colorectal cancer", "setting": "HCT116OX5", "result": "could significantly block the drug resistance"}, {"measurement": "concentration of taxol inside cells, with USP24 inhibitor", "setting": "T24 cells [3]; under 1000 nM taxol treatment", "result": 321.36, "unit": "nM"}, {"measurement": "levels of Bax, BRD7", "setting": "[1]", "result": "could decrease the levels"}, {"measurement": "level of p300", "setting": "[1]", "result": "could decrease the levels"}, {"measurement": "EMT markers", "setting": "EMT markers", "result": "inhibited"}, {"measurement": "T24 sphere formation ability", "setting": "T24 cells [4]", "result": "inhibit the T24 sphere formation ability"}, {"measurement": "cytotoxicity of taxol in the inhibition of cancer size and weight", "setting": "T24", "result": "increased the cytotoxicity of taxol in the inhibition of cancer size and weight"}, {"measurement": "drug resistance induced by TMZ in brain cancer", "setting": "TMZR", "result": "could significantly block the drug resistance"}, {"measurement": "drug resistance induced by taxol in lung cancer", "setting": "T24 cells [5]", "result": "could significantly block the drug resistance"}, {"measurement": "level of P-gp", "setting": "P-gp", "result": "could decrease the level of P-gp"}, {"measurement": "lung cancer migration", "setting": "lung cancer", "result": "could inhibit lung cancer migration"}, {"measurement": "catalytic activity of USP7", "setting": "USP7", "result": "could not block"}, {"measurement": "drug resistance induced by Camptothecin in NPC", "setting": "Hone-1 CPT-R", "result": "could significantly block the drug resistance"}]}, {"smiles": "CN1CCN(CCN2c3ccccc3Sc3ccc(C(=O)c4ccccc4)cc32)CC1", "note": "[USP24-i101, (10-(2-(4-Methylpiperazin-1-yl)ethyl)-10H-phenothiazin-2-yl)(phenyl)methanone]", "values": [{"measurement": "catalytic activity of recombinant purified USP24 proteins", "setting": "USP24", "result": "had comparably catalytic activity to NCI699397"}, {"measurement": "viability at 1 μg/mL", "setting": "[6]", "result": 94, "unit": "%"}, {"measurement": "viability at 5 μg/mL", "setting": "[6]", "result": 80.5, "unit": "%"}, {"measurement": "IC50", "setting": "HCC827-GR cells; read-out: IC50 of gefitinib in HCC827-GR with USP24-i101, 1 μg/mL of USP24-i101", "result": 6.3, "unit": "nM"}, {"measurement": "IC50", "setting": "HCC827-GR cells; read-out: IC50 of gefitinib in HCC827-GR with USP24-i101, 5 μg/mL of USP24-i101", "result": 3.1, "unit": "nM"}]}, {"smiles": "CCC[C@H](NC(=O)/C(C#N)=C/c1cccc(Br)n1)c1ccccc1", "note": "[WP1130, reference compound]", "values": [{"measurement": "inhibition of the substrates of USP24 in lung cancer", "setting": "[1]; FIG. 4C", "result": "could not inhibit"}]}, {"smiles": "CC(=O)O[C@H]1C(=O)[C@@]2(C)[C@H]([C@H](OC(=O)c3ccccc3)[C@]3(O)C[C@H](OC(=O)[C@H](O)[C@@H](NC(=O)c4ccccc4)c4ccccc4)C(C)=C1C3(C)C)[C@]1(OC(C)=O)CO[C@@H]1C[C@@H]2O", "note": "[taxol]", "values": [{"measurement": "accumulation of taxol inside the drug resistant cells, T24", "setting": "T24 cells [3]; loss of USP24 (knockdown)", "result": 272.7, "unit": "nM/1000 nM"}, {"measurement": "accumulation of taxol inside the drug resistant cells, T24", "setting": "T24 cells [3]; without USP24 knockdown", "result": 110.8, "unit": "nM/1000 nM"}]}]}
